# Compound: c1ccc2c(CCNc3ccc(Nc4ccncc4)cc3)c[nH]c2c1 [Serdemetan] + CC(C)C[C@H](NC(=O)[C@H](Cc1ccccc1)NC(=O)c1cnccn1)B(O)O [Bortezomib] (partner 0.002 µM)
# Experiment: relative viability (nuclei count vs DMSO), 5 days (fraction); higher = more cells survive
# Details: first compound 0.04 µM
# Method in brief: (§1)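 One day after seeding in 1536-well plates, lung cancer cell lines were dosed by pin tool. Dosing was either single-drug or a fixed anchor-drug dose plus five library-drug doses (not always all listed) in √10 steps. After 5 days, nuclei were stained in one fix-and-stain step and counted on 4× images, and relative viability is the nuclei count of treated wells over that of vehicle wells, given as the median of duplicate plates.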
row,Cell Line,relative viability
1,NCI-H1755,0.877
2,NCI-H2023,0.74
3,HCC-15,1
4,PC-14,0.924
5,EKVX,1.09
6,LC-2-ad,0.921
7,NCI-H1975,0.346
8,RERF-LC-KJ,1.19
9,NCI-H650,0.673
10,PC-3 [JPC-3],0.868

# Same assay, conditions: first compound 0.1265 µM
row,Cell Line,relative viability
1,NCI-H1755,0.949
2,NCI-H2023,0.985
3,HCC-15,1.01
4,PC-14,0.797
5,EKVX,1
6,LC-2-ad,0.927
7,NCI-H1975,0.378
8,RERF-LC-KJ,1.16
9,NCI-H650,0.679
10,PC-3 [JPC-3],0.861

# Same assay, conditions: first compound 0.4 µM
row,Cell Line,relative viability
1,NCI-H1755,0.896
2,NCI-H2023,0.9
3,HCC-15,1.01
4,PC-14,0.791
5,EKVX,0.857
6,LC-2-ad,1.04
7,NCI-H1975,0.377
8,RERF-LC-KJ,1.06
9,NCI-H650,0.872

# Same assay, conditions: first compound 1.265 µM
row,Cell Line,relative viability
1,NCI-H1755,0.58
2,NCI-H2023,0.485
3,HCC-15,0.954
4,PC-14,0.606
5,EKVX,0.911
6,NCI-H1975,0.313
7,RERF-LC-KJ,1.03
8,NCI-H650,0.674
9,PC-3 [JPC-3],0.755

# Same assay, conditions: first compound 4 µM
row,Cell Line,relative viability
1,NCI-H1755,0.563
2,NCI-H2023,0.28
3,HCC-15,0.855
4,PC-14,0.497
5,EKVX,1.25
6,LC-2-ad,0.912
7,NCI-H1975,0.314
8,RERF-LC-KJ,0.797
9,NCI-H650,0.848
10,PC-3 [JPC-3],0.812

# Compound: c1ccc2c(CCNc3ccc(Nc4ccncc4)cc3)c[nH]c2c1 [Serdemetan] + O=C(CCCCCCC(=O)Nc1ccccc1)NO [Vorinostat] (partner 1 µM)
# Experiment: as above
# Details: first compound 0.04 µM
# Method in brief: as §1
row,Cell Line,relative viability
1,NCI-H1755,0.648
2,NCI-H2023,0.48
3,HCC-15,0.848
4,PC-14,0.718
5,EKVX,0.798
6,LC-2-ad,0.71
7,NCI-H1975,0.718
8,RERF-LC-KJ,0.687
9,NCI-H650,0.352
10,PC-3 [JPC-3],0.877

# Same assay, conditions: first compound 0.1265 µM
row,Cell Line,relative viability
1,NCI-H1755,0.811
2,NCI-H2023,0.708
3,HCC-15,0.83
4,PC-14,0.811
5,EKVX,0.719
6,LC-2-ad,0.683
7,NCI-H1975,0.725
8,RERF-LC-KJ,0.611
9,NCI-H650,0.478
10,PC-3 [JPC-3],0.807

# Same assay, conditions: first compound 0.4 µM
row,Cell Line,relative viability
1,NCI-H1755,0.741
2,NCI-H2023,0.53
3,HCC-15,0.704
4,LC-2-ad,0.673
5,NCI-H1975,0.697
6,RERF-LC-KJ,0.609
7,NCI-H650,0.51
8,PC-3 [JPC-3],0.671

# Same assay, conditions: first compound 1.265 µM
row,Cell Line,relative viability
1,NCI-H1755,0.54
2,NCI-H2023,0.343
3,HCC-15,0.681
4,PC-14,0.645
5,EKVX,0.462
6,LC-2-ad,0.646
7,NCI-H1975,0.743
8,RERF-LC-KJ,0.71
9,NCI-H650,0.405
10,PC-3 [JPC-3],0.626

# Same assay, conditions: first compound 4 µM
row,Cell Line,relative viability
1,NCI-H1755,0.459
2,NCI-H2023,0.258
3,HCC-15,0.456
4,PC-14,0.266
5,EKVX,0.546
6,LC-2-ad,0.638
7,NCI-H1975,0.687
8,RERF-LC-KJ,0.654
9,NCI-H650,0.46
10,PC-3 [JPC-3],0.835

# Compound: C1CC(C2=C(C1)C3=C(N2)C=CC(=C3)Cl)C(=O)N [Selisistat] + Nc1nc2[nH]cc(CCc3ccc(C(=O)N[C@@H](CCC(=O)O)C(=O)O)cc3)c2c(=O)[nH]1 [Pemetrexed] (partner 0.2 µM)
# Experiment: as above
# Details: first compound 0.4 µM
# Method in brief: as §1
row,Cell Line,relative viability
1,NCI-H1755,0.406
2,NCI-H2023,0.239
3,HCC-15,0.241
4,PC-14,0.116
5,EKVX,0.348
6,LC-2-ad,0.263
7,NCI-H1975,0.275
8,RERF-LC-KJ,0.482
9,NCI-H650,0.961
10,PC-3 [JPC-3],1.14

# Same assay, conditions: first compound 1.265 µM
row,Cell Line,relative viability
1,NCI-H1755,0.431
2,NCI-H2023,0.259
3,HCC-15,0.222
4,PC-14,0.152
5,EKVX,0.314
6,LC-2-ad,0.268
7,NCI-H1975,0.283
8,RERF-LC-KJ,0.466
9,NCI-H650,0.907
10,PC-3 [JPC-3],1.15

# Same assay, conditions: first compound 4 µM
row,Cell Line,relative viability
1,NCI-H1755,0.524
2,NCI-H2023,0.258
3,PC-14,0.123
4,EKVX,0.361
5,LC-2-ad,0.268
6,NCI-H1975,0.3
7,RERF-LC-KJ,0.467
8,NCI-H650,1.06

# Same assay, conditions: first compound 12.65 µM
row,Cell Line,relative viability
1,NCI-H1755,0.619
2,NCI-H2023,0.203
3,HCC-15,0.23
4,PC-14,0.139
5,EKVX,0.342
6,LC-2-ad,0.285
7,NCI-H1975,0.278
8,RERF-LC-KJ,0.466
9,NCI-H650,0.921
10,PC-3 [JPC-3],0.951

# Same assay, conditions: first compound 40 µM
row,Cell Line,relative viability
1,NCI-H1755,0.366
2,NCI-H2023,0.236
3,HCC-15,0.213
4,PC-14,0.137
5,EKVX,0.404
6,LC-2-ad,0.261
7,NCI-H1975,0.316
8,RERF-LC-KJ,0.468
9,NCI-H650,1.18
10,PC-3 [JPC-3],1.02

# Compound: c1ccc2c(CCNc3ccc(Nc4ccncc4)cc3)c[nH]c2c1 [Serdemetan] + Cc1nc(Nc2ncc(C(=O)Nc3c(C)cccc3Cl)s2)cc(N2CCN(CCO)CC2)n1 [Dasatinib] (partner 0.075 µM)
# Experiment: as above
# Details: first compound 0.04 µM
# Method in brief: as §1
row,Cell Line,relative viability
1,NCI-H1755,0.414
2,NCI-H2023,0.521
3,HCC-15,0.676
4,PC-14,0.262
5,EKVX,0.523
6,LC-2-ad,0.495
7,NCI-H1975,0.373
8,RERF-LC-KJ,0.837
9,NCI-H650,0.424
10,PC-3 [JPC-3],0.973

# Same assay, conditions: first compound 0.1265 µM
row,Cell Line,relative viability
1,NCI-H1755,0.446
2,NCI-H2023,0.674
3,HCC-15,0.608
4,PC-14,0.247
5,EKVX,0.645
6,LC-2-ad,0.634
7,NCI-H1975,0.418
8,RERF-LC-KJ,0.788
9,NCI-H650,0.449
10,PC-3 [JPC-3],0.95

# Same assay, conditions: first compound 0.4 µM
row,Cell Line,relative viability
1,NCI-H1755,0.404
2,NCI-H2023,0.532
3,HCC-15,0.562
4,PC-14,0.115
5,LC-2-ad,0.519
6,NCI-H1975,0.361
7,RERF-LC-KJ,0.667
8,NCI-H650,0.451
9,PC-3 [JPC-3],1.01

# Same assay, conditions: first compound 1.265 µM
row,Cell Line,relative viability
1,NCI-H1755,0.24
2,NCI-H2023,0.43
3,HCC-15,0.541
4,PC-14,0.308
5,EKVX,0.355
6,LC-2-ad,0.501
7,RERF-LC-KJ,0.657
8,NCI-H650,0.35
9,PC-3 [JPC-3],0.924

# Same assay, conditions: first compound 4 µM
row,Cell Line,relative viability
1,NCI-H1755,0.306
2,NCI-H2023,0.233
3,HCC-15,0.49
4,PC-14,0.147
5,EKVX,0.371
6,LC-2-ad,0.475
7,NCI-H1975,0.352
8,RERF-LC-KJ,0.69
9,NCI-H650,0.43
10,PC-3 [JPC-3],0.941

# From the supplement of paper PMC10307832
